Measured values as given in ChEMBL document CHEMBL5325398, “Design of Cytochrome P450 1B1 Inhibitors via a Scaffold-Hopping Approach” (J Med Chem, 2023).

Tests used:
Cytochrome P450 1A1 = biological target: T1, Cytochrome P450 1A1 (Homo sapiens, UniProt P04798); experiment: Inhibition of CYP1A1 (unknown origin) expressed in HEK293-T-REx cells co-expressing POR incubated for 1 hr by resorufin dye based plate reader analysis; format: ADME, cell-based
T1 sequence (P04798 whole entry): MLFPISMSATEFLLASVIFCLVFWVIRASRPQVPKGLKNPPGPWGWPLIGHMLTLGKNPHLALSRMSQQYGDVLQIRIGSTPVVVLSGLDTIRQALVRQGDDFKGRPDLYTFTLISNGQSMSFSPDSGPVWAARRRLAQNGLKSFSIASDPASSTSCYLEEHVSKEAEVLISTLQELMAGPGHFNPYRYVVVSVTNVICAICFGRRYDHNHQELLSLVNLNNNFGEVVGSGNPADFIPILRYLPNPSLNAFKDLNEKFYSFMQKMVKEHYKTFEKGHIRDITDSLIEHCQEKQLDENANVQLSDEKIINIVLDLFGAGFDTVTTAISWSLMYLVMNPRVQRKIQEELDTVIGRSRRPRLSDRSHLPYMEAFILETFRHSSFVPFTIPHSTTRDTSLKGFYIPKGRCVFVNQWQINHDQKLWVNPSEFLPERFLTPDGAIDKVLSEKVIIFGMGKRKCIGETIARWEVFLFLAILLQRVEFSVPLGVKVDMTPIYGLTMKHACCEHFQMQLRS

Cytochrome P450 1B1 [1] = biological target: T2, Cytochrome P450 1B1 (Homo sapiens, UniProt Q16678); experiment: Inhibition of CYP1B1 (unknown origin) expressed in HEK293-T-REx cells co-expressing POR incubated for 1 hr by resorufin dye based plate reader analysis; format: ADME, cell-based
T2 sequence (Q16678 whole entry): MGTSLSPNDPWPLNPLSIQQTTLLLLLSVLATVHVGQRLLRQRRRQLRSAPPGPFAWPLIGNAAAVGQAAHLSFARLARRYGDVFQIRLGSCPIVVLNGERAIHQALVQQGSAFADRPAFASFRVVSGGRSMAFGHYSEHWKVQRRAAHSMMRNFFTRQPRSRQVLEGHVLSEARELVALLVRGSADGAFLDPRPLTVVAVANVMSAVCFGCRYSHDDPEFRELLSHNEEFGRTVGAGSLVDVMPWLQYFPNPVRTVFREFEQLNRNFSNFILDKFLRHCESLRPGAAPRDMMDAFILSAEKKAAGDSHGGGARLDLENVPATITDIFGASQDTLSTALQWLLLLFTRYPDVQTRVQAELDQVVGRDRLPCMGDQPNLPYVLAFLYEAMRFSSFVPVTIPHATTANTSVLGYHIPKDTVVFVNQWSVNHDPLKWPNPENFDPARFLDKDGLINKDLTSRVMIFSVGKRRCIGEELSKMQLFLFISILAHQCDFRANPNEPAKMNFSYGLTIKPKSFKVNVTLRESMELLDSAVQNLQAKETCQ

CYP1A1 versus CYP1B1 = experiment: Selectivity index, ratio of IC50 for CYP1A1 (unknown origin) to IC50 for CYP1B1 (unknown origin); details: read-out: Ratio IC50
Cytochrome P450 1B1 [2] = biological target: Cytochrome P450 1B1 (Homo sapiens, UniProt Q16678, T510V); experiment: Inhibition of CYP1B1 T510V mutant (unknown origin) expressed in HEK293-T-REx cells; format: ADME, cell-based
Sequence of Cytochrome P450 1B1 (Homo sapiens, UniProt Q16678, T510V) (Q16678 whole entry T510V): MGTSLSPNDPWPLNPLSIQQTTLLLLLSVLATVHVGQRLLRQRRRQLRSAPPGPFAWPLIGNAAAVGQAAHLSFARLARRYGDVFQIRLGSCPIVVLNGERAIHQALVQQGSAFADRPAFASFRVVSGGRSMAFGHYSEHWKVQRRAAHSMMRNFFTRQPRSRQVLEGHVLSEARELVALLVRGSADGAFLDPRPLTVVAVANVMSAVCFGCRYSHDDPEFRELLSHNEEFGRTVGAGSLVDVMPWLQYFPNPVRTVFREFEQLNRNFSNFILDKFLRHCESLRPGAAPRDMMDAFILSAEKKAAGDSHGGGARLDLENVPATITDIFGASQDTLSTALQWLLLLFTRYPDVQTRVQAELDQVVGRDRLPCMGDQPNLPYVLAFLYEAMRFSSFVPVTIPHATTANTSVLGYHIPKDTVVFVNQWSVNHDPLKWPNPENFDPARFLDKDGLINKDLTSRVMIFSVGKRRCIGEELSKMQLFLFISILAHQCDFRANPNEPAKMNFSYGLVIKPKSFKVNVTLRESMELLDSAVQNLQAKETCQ

[3] = Cytotoxicity against HEK293-T-REx cells assessed as reduction in cell viability measured after 72 hrs by resazurin dye based analysis; format: toxicity, Homo sapiens; details: for IC50: hek293-t-rex; for IC50 at 72 h: human, HEK293-T-REx cells
Cytochrome P450 1B1 [4] = biological target: Cytochrome P450 1B1 (Homo sapiens, UniProt Q16678, S127C); experiment: Inhibition of CYP1B1 S127C mutant (unknown origin) expressed in HEK293-T-REx cells; format: ADME, cell-based
Sequence of Cytochrome P450 1B1 (Homo sapiens, UniProt Q16678, S127C) (Q16678 whole entry S127C): as the sequence (Q16678 whole entry T510V) above, with S127C, V510T counted along it

Cytochrome P450 1B1 [5] = biological target: Cytochrome P450 1B1 (Homo sapiens, UniProt Q16678, T334V); experiment: Inhibition of CYP1B1 T334V mutant (unknown origin) expressed in HEK293-T-REx cells; format: ADME, cell-based
Sequence of Cytochrome P450 1B1 (Homo sapiens, UniProt Q16678, T334V) (Q16678 whole entry T334V): as the sequence (Q16678 whole entry T510V) above, with T334V, V510T counted along it

Cytochrome P450 1B1 [6] = biological target: T2, Cytochrome P450 1B1; experiment: Binding affinity to N-terminal human microsomal CYP1B1 expressed in Escherichia coli assessed as spectral dissociation constant by absorbance based analysis
in vitro [7] = details: human, liver
in vitro [8] = details: rat, liver
in vitro [9] = details: mouse, liver

Compound `COc1ccc(OC)c2c1c(OC)cc1c(=O)cc(-c3cccc(F)c3)oc12` has an IC50 (Cytochrome P450 1A1) of 0.012 µM.
`C#C[C@]1(O)CC[C@H]2[C@@H]3CCc4cc(O)c(-c5ccc(OC)cc5)cc4[C@H]3CC[C@@]21C` showed an IC50 (Cytochrome P450 1B1 [1]) of 0.37 µM, an IC50 (Cytochrome P450 1A1) of 9.2 µM and a selectivity ratio (CYP1A1 versus CYP1B1) of 25.
With `COc1cc(/C=C/c2ccc(OC)cc2OC)cc(OC)c1` the “inhibition (INH)” value (Cytochrome P450 1B1 [2]) was “Not Active”, the IC50 [3] was 1.3 µM and the “inhibition (INH)” value (Cytochrome P450 1B1 [4]) was “Active”. For the same compound, the “inhibition (INH)” value (Cytochrome P450 1B1 [5]) was “Not Active”.
In the case of `COc1ccc(-c2nc(-c3ccc(C#N)cc3)cs2)c(OC)c1`, the “inhibition (INH)” value (Cytochrome P450 1B1 [2]) is reported as “Not Active”, the IC50 [3] is reported as greater than 100 µM and the “inhibition (INH)” value (Cytochrome P450 1B1 [5]) is reported as “Not Active”.
`COc1cc(OC)cc(-c2cccc(-c3cc(OC)cc(OC)c3)c2)c1` showed an IC50 [3] of 4.18 µM.
For `COc1ccc(-c2nc(-c3ccc(F)cc3)cs2)c(OC)c1`, the IC50 [3] was 51.4 µM.
With `COc1ccc(/C=C/c2ccncc2)c(OC)c1` the IC50 (Cytochrome P450 1A1) was 4.57 µM.
`COc1cc(OC)cc(-c2cncc(-c3cc(OC)cc(OC)c3)c2)c1` showed an IC50 [3] of 0.18 µM.
For `COc1cc(OC)cc(-c2csc(-c3cc(OC)cc(OC)c3)n2)c1`, the IC50 at 72 h [3] was 10 µM.
`COc1ccc(-c2nc(-c3ccc(O)cc3)cs2)c(OC)c1` showed an IC50 (Cytochrome P450 1B1 [1]) of 0.6 µM, an IC50 [3] of 3.4 µM and a Kd (Cytochrome P450 1B1 [6]) of 0.35 µM.
With `COc1ccc(-c2nc(-c3cccnc3)cs2)c(OC)c1` the IC50 [3] was 26.7 µM.
In the case of `COc1ccc(-c2cccc(-c3ccc(OC)cc3OC)c2)c(OC)c1`, the IC50 [3] is reported as 1.62 µM.
Compound `COc1ccc(-c2csc(-c3ccc(OC)cc3OC)n2)c(OC)c1` has an IC50 [3] of roughly 100 µM.
In the case of `COc1cc(OC)cc(-c2ccnc(-c3cc(OC)cc(OC)c3)n2)c1`, the IC50 at 72 h [3] is reported as 10 µM.
`COc1ccc(-c2csc(-c3ccc(OC)cc3OC)n2)cc1` gave an IC50 [3] greater than 100 µM.
For `COc1cc(OC)cc(-c2ccc(-c3cc(OC)cc(OC)c3)s2)c1`, the IC50 [3] was greater than 10 µM.
For `COc1cc(OC)cc(-c2cc(-c3cc(OC)cc(OC)c3)ncn2)c1`, the IC50 [3] was 10 µM.
For `O=c1cc(-c2ccccc2)oc2c1ccc1ccccc12` [ALPHA-NAPHTHOFLAVONE], the “inhibition (INH)” value (Cytochrome P450 1B1 [2]) was “Active”, the IC50 [3] was 14.8 µM and the “inhibition (INH)” value (Cytochrome P450 1B1 [4]) was “Active”. The “inhibition (INH)” value (Cytochrome P450 1B1 [5]) was “Not Active”.
For `O=C(O)Cc1ccccc1Nc1c(Cl)cccc1Cl` [DICLOFENAC], the CLint scaled at 100 µM (in vitro [7]) was 324 mL/min/kg, the CLint scaled at 100 µM (in vitro [8]) was 142 mL/min/kg and the CLint scaled at 100 µM (in vitro [9]) was 178 mL/min/kg.
